According to ChEMBL document CHEMBL1158685, “Potent CYP3A4 inhibitory constituents of Piper cubeba” (J Nat Prod, 2005):

Experiments:
Cytochrome P450 2D6 = Cytochrome P450 2D6 (Homo sapiens, UniProt P10635); experiment: Inhibition of human liver microsome CYP2D6 in assessed as [14C]formaldehyde formation; type: ADME, microsomes
Cytochrome P450 3A4 = Cytochrome P450 3A4 (Homo sapiens, UniProt P08684); experiment: Inhibition of human liver microsome CYP3A4 in assessed as [14C]formaldehyde formation; type: ADME, microsomes
Sequence of Cytochrome P450 3A4 (P08684 whole entry): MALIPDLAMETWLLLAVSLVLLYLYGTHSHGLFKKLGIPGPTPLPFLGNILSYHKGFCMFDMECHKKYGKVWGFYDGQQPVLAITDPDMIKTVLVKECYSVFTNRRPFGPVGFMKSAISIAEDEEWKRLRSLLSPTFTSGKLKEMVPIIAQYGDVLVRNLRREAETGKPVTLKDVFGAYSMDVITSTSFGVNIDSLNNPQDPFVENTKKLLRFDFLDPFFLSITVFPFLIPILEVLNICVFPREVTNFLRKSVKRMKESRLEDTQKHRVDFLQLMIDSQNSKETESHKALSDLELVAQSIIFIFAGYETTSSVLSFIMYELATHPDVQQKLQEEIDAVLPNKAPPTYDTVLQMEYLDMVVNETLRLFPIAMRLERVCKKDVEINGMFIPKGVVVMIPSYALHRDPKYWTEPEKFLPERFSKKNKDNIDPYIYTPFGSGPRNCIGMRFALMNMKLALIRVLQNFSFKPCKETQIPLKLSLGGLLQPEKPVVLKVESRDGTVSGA

Sequence of Cytochrome P450 2D6 (P10635 whole entry): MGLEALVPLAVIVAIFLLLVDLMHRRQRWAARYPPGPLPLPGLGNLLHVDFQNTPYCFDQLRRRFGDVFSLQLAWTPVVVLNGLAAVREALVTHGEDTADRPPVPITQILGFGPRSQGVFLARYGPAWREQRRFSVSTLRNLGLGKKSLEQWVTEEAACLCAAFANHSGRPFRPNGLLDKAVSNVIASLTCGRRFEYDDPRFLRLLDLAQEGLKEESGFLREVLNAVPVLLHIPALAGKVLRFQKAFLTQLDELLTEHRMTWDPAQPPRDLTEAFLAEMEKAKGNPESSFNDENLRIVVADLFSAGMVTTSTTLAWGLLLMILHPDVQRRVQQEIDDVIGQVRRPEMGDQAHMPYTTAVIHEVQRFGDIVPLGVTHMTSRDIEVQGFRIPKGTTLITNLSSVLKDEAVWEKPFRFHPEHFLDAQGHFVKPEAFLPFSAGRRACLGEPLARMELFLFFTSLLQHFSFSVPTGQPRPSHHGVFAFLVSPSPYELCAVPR

| Structure (SMILES) | IC50 (Cytochrome P450 2D6) | IC50 (Cytochrome P450 3A4) |
| --- | --- | --- |
| COc1cc(C[C@H]2C(O)OC[C@@H]2Cc2ccc3c(c2)OCO3)cc(OC)c1OC (stereo not given in full) | > 100 µM | 0.83 µM |
| CC1=C[C@@H](O)[C@@]23O[C@]2(C)C[C@@H]2OC(=O)C(C)=C2C[C@@H]13 | > 100 µM | 98.2 µM |
| OC[C@H](Cc1ccc2c(c1)OCO2)[C@H](CO)Cc1ccc2c(c1)OCO2 [DIHYDROCUBEBIN] | 17.5 µM | 9.5 µM |
| CCOc1cc(C[C@H]2COC(O)[C@@H]2Cc2cc(OC)c(OC)c(OC)c2)cc2c1OCO2 (stereo not given in full) [ETHOXYCLUSIN] | 87.9 µM | 0.44 µM |
| COc1cc(C[C@H]2C(=O)OC[C@@H]2Cc2ccc3c(c2)OCO3)cc(OC)c1OC | 95.7 µM | 1 µM |
| CO[C@@H]1OC[C@H](Cc2ccc3c(c2)OCO3)[C@H]1Cc1ccc2c(c1)OCO2 | > 100 µM | 7.7 µM |
| O=C1OC[C@H](Cc2ccc3c(c2)OCO3)[C@H]1Cc1ccc2c(c1)OCO2 [HINOKININ] | 26.5 µM | 8 µM |
| COc1cc(OC)c([C@@H]2[C@H](C)[C@@H](C)[C@H]2c2cc(OC)c(OC)cc2OC)cc1OC [MAGNOSALIN] | > 100 µM | 85.4 µM |
| COc1cc(C[C@H]2COC(=O)[C@@H]2Cc2cc(OC)c3c(c2)OCO3)cc(OC)c1O | > 100 µM |  |
| O[C@H]1OC[C@H](Cc2ccc3c(c2)OCO3)[C@H]1Cc1ccc2c(c1)OCO2 | 35.5 µM | 9.1 µM |
| COc1cc(C[C@@H](CO)[C@H](CO)Cc2ccc3c(c2)OCO3)cc(OC)c1OC | > 100 µM | 0.8 µM |
| COc1cc(C[C@H]2COC(=O)[C@@H]2Cc2cc(OC)c(OC)c(OC)c2)cc(OC)c1OC | > 100 µM | 14.9 µM |
| COc1cc(OC)c(OC)cc1CC(C)=O | > 100 µM | 28.7 µM |
| COc1cc(C[C@H]2COC(O)[C@@H]2Cc2cc(OC)c(OC)c(OC)c2)cc(OC)c1OC (stereo not given in full) | > 100 µM | 15 µM |
| COc1cc(C[C@@H]2[C@@H](Cc3cc(OC)c4c(c3)OCO4)CO[C@@H]2O)cc(OC)c1OC | > 100 µM | 0.83 µM |
| COc1cc([C@H]2OC[C@@H]3C(c4cc(OC)c(O)c(OC)c4)OC[C@H]23)ccc1O (stereo not given in full) [MEDIORESINOL] | > 100 µM | 13.7 µM |
| CC1=CC(=O)C2=C(C)C[C@@H]3OC(=O)C(C)=C3C[C@@H]12 | > 100 µM | 8.8 µM |
| C/C=C/c1cc(OC)c(OC)cc1OC [TRANS-ASARONE] | > 100 µM | 92.3 µM |
